Results published in article PMC6151395, “COX Inhibition Profile and Molecular Docking Studies of Some 2-(Trimethoxyphenyl)-Thiazoles” (Molecules : A Journal of Synthetic Chemistry and Natural …, 2017).
“And” between values parts separate entries of the source, which are not always exact repeats. Identical values can stand only once.

How the values were obtained:
[1] = molecular target: T1, human recombinant COX-2 (Homo sapiens, UniProt P35354); assay: biochemical; format: biochemical; conditions: for Selectivity index SI = IC50 COX-1/IC50 COX-2: ratio of ovine COX-1 to human recombinant COX-2 IC50
T1 construct: purchased Cayman Chemical 560131
T1 sequence (P35354 18-604): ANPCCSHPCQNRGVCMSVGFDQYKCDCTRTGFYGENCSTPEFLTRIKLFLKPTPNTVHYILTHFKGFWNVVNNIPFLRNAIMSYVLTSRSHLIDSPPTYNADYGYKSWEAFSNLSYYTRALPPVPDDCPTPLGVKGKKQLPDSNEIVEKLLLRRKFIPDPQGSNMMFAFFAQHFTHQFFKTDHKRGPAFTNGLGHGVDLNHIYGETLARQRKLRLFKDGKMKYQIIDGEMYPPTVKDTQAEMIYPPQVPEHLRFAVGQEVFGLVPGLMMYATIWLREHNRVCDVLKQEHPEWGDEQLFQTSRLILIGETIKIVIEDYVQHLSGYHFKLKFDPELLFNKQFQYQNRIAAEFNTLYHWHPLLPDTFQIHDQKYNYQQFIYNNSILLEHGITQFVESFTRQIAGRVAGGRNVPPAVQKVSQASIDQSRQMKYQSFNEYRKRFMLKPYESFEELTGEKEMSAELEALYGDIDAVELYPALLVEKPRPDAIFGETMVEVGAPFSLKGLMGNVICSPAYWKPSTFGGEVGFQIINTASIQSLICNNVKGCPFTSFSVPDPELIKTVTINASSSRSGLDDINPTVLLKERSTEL
Protocol: (§1) The COX-1/2 inhibitory activities of the tested compounds were evaluated using the enzyme immunoassay (EIA) method against ovine COX-1 and human recombinant COX-2. The selectivity index was calculated as the ratio IC50 COX-1/IC50 COX-2.
(§2) The kit utilizes an enzyme immunoassay (EIA) in order to quantify the prostanoid product resulted from COX catalyzed reaction. The inhibitory potential of our molecules was tested against the ovine COX-1 and human recombinant COX-2 enzymes. The COX inhibition reaction was performed by a 10 min incubation at 37 °C in the presence of reaction buffer, heme, COX-1 or COX-2 enzymes, and the tested inhibitor. The reaction was initiated by adding arachidonic acid and incubating at 37 °C for 2 min. Enzymatic catalysis was stopped by adding HCl. Stannous chloride was subsequently added to perform the reduction of COX-derived prostaglandin H2 (PGH2) produced in the reaction of COX leading to prostaglandin F2α (PGF2α). PGF2α was then quantified using the EIA kit. Prostanoid containing solutions obtained from the COX reaction were then diluted and transferred to plates that were pre-coated with monoclonal anti-rabbit IgG antibodies produced in mouse. They were incubated overnight in the presence of PG-acetylcholinesterase (AchE) conjugate and specific PG antiserum. The reaction mixture was then removed from the wells, the plates were washed to remove all unbound reagents and Ellman’s reagent (which contains the AchE substrate) was then added for plate development. […] The intensity of the color is inversely proportional to the amount of PG found in the sample. The PG quantity was determined using a PG standard curve generated on the same plate. All determinations were performed according to the manufacturer’s instructions and similar with other literature reports. The IC50 values were calculated using a sigmoidal concentration-inhibition response curve (duplicate determinations). Every compound was assayed in the COX reaction on a range of concentrations from 0.03 μM to 300 µM in two distinct determinations. Each COX reaction sample was then EIA assayed at two dilutions and each dilution was tested in duplicate. […] Using IC50 values, the selectivity index (SI) was calculated as the ratio IC50COX-1/IC50COX-2.

[2] = molecular target: T2, ovine COX-1 (Ovis aries, UniProt P05979); assay: biochemical; format: biochemical; conditions: EIA, sigmoidal concentration-inhibition curves, concentrations 0.03 μM to 300 µM
T2 construct: purchased Cayman Chemical 560131
T2 sequence (P05979 25-600): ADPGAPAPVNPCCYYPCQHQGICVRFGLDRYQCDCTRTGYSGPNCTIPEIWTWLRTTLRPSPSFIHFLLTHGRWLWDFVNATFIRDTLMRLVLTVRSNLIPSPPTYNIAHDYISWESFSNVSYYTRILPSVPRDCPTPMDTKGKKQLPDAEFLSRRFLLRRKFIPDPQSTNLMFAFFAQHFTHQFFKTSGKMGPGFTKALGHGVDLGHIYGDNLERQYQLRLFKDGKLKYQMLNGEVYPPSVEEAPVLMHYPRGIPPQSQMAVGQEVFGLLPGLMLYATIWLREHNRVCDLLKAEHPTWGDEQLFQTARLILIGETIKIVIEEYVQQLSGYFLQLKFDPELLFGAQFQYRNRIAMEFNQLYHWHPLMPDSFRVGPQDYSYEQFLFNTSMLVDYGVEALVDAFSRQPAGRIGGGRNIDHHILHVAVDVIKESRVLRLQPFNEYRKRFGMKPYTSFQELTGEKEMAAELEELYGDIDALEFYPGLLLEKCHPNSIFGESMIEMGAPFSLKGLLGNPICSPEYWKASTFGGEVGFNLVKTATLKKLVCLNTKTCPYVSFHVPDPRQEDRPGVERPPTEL
Protocol: as §1, §2

[3] = parameters: method as in earlier work; conditions: induced acute inflammation experimental model; cited from earlier work
[4] = human recombinant COX-2, EIA, sigmoidal concentration-inhibition curves, concentrations 0.03 μM to 300 µM

Compound: COc1cc(-c2nc(-c3ccccc3)c(C)s2)cc(OC)c1OC [A1]
- IC50 [1, 4]: > 300 µM
- IC50 COX-2 [1, 4]: practically inactive
- IC50 [2]: 140 µM

Compound: COc1cc(-c2nc(-c3ccccc3)cs2)cc(OC)c1OC [A2]
- IC50 [1, 4]: 23.3 µM
- Selectivity index SI = IC50 COX-1/IC50 COX-2 [1]: 1.48
- IC50 [2]: 34.5 µM
- IC50 COX-1 [2]: potent
- in vivo anti-inflammatory effect [3]: lacked the in vivo effect

Compound: COc1cc(-c2nc(-c3ccc([N+](=O)[O-])cc3)cs2)cc(OC)c1OC [A3]
- IC50 [1, 4]: 25.5 µM
- Selectivity index SI = IC50 COX-1/IC50 COX-2 [1]: 9.242 and 9.24
- IC50 [2]: 236 µM
- in vivo anti-inflammatory effect [3]: efficient

Compound: COc1ccc(-c2csc(-c3cc(OC)c(OC)c(OC)c3)n2)cc1 [A4]
- IC50 [1, 4]: 75 µM
- Selectivity index SI = IC50 COX-1/IC50 COX-2 [1]: 0.67
- IC50 [2]: 50.4 µM
- IC50 COX-1 [2]: potent

Compound: COc1cc(-c2nc(-c3ccc(C#N)cc3)cs2)cc(OC)c1OC [A5]
- IC50 [1, 4]: 148 µM
- Selectivity index SI = IC50 COX-1/IC50 COX-2 [1]: 0.49
- IC50 [2]: 73.3 µM

Compound: COc1cc(-c2nc(-c3cccc4ccccc34)cs2)cc(OC)c1OC [A6]
- IC50 [1, 4]: 28.9 µM
- Selectivity index SI = IC50 COX-1/IC50 COX-2 [1]: 0.93
- IC50 [2]: 26.9 µM

Compound: COc1cc(-c2nc(-c3ccc(C(N)=O)c(O)c3)cs2)cc(OC)c1OC [A7]
- IC50 [1, 4]: 106 µM
- Selectivity index SI = IC50 COX-1/IC50 COX-2 [1]: 0.51
- IC50 [2]: 54.7 µM
- IC50 COX-1 [2]: potent

Compound: COc1cc(-c2nc(-c3ccc(Cl)cc3)cs2)cc(OC)c1OC [A8]
- IC50 [1, 4]: 25.6 µM
- Selectivity index SI = IC50 COX-1/IC50 COX-2 [1]: 1.22
- IC50 [2]: 31.5 µM
- IC50 COX-1 [2]: potent
- in vivo anti-inflammatory effect [3]: efficient

Compound: COc1cc(-c2nc(-c3sc(-c4ccccc4)nc3C)cs2)cc(OC)c1OC [A9]
- IC50 [1, 4]: 70.9 µM
- Selectivity index SI = IC50 COX-1/IC50 COX-2 [1]: 1.17
- IC50 [2]: 83.2 µM

Compound: COc1cc(-c2nc(CCl)cs2)cc(OC)c1OC [A10]
- IC50 [1, 4]: 107 µM
- Selectivity index SI = IC50 COX-1/IC50 COX-2 [1]: 5.69

Compound: COc1cc(-c2nc(C)c(C(C)=O)s2)cc(OC)c1OC [A11]
- IC50 [1, 4]: 216 µM
- Selectivity index SI = IC50 COX-1/IC50 COX-2 [1]: 0.35
- IC50 [2]: 76 µM

Compound: CCOC(=O)c1sc(-c2cc(OC)c(OC)c(OC)c2)nc1C [A12]
- IC50 [1, 4]: 273 µM
- Selectivity index SI = IC50 COX-1/IC50 COX-2 [1]: 1.5

Compound: CCOC(=O)Cc1csc(-c2cc(OC)c(OC)c(OC)c2)n1 [A13]
- IC50 [1, 4]: 229 µM
- Selectivity index SI = IC50 COX-1/IC50 COX-2 [1]: 0.47
- IC50 [2]: 109 µM
